Data from patent publication EP3778613A1, “THIRD GENERATION DENDRIMER, PROCESS FOR PRODUCTION THEREOF AND USE THEREOF” (Consejo Superior de Investigaciones Científicas (CSIC), priority 2019, dated 2021).

Key:
[1] = Relaxometric measurements (r1, r2 relaxivity) by MRI at 7 T; details: 100 mM phosphate buffer pH 7.4, 300K
Experimental: Magnetic Resonance Imaging (MRI) experiments were carried out in a BioSpec 70/30 Bruker system using a 7.0 T horizontal-bore superconducting magnet equipped with actively shielded gradients (B-GA12 gradient coil inserted into a B-GA20S gradient system). A quadrature 72 mm inner diameter volume coil was used for in vitro studies.
Relaxometric measurements. Longitudinal (r1) and transverse (r2) relaxivities were determined per concentration of PROXYL units. […] The software used for the calculations of T1 and T2 relaxations was Paravision 6.0 (Bruker Software). r1 relaxivity. Series of axial T1-weighted (T1W) images were acquired for each concentration of PROXYL to obtain T1 maps based on a magnetization saturation experiment and the following parameters: repetition time (TR) = 70-6000 ms, echo time (TE) = 9.2 ms, field of view (FOV) = 2.5 x 2.5 cm, averages (Av) = 1, acquisition matrix (Mtx) = 128 x 128. The T1 values were calculated from the mean signal in the region of interest (ROI) for each repetition time, adjusted to the equation: S = S0 [1 - […]]. r2 relaxivity. T2 maps were calculated from multi spin echo images with a TR of 2 s. 25 echo images were acquired with a TE of 8.02 ms, which was the interval time between echo images acquisitions, too. […] The T2 values were calculated from mean signal in the ROI for each echo image, adjusted according to the equation: S = S0 […]]. […]

[2] = Kinetics of reduction of PROXYL with ascorbate, followed by EPR; type: physicochemical; details: nitroxide reduction with sodium ascorbate (10-fold excess per PROXYL unit), 100 mM PB pH 7.4, 300 K
Source text: Electronic Paramagnetic Resonance Spectroscopy (EPR) spectra were obtained with an X-Band (9.4 GHz) Bruker ELEXSYS 500 spectrometer equipped with a TE102 microwave cavity, a Bruker variable temperature unit, a field frequency lock system Bruker ER 033 M and equipped with a NMR Gaussmeter Bruker ER 035 M. The modulation amplitude was kept well below the line width, and the microwave power was well below saturation. All samples were previously degassed with Ar. Experiments in aqueous phase were carried out with a quartz flat cell.
Kinetics of reduction of PROXYL with ascorbate. All the solutions were freshly prepared in 100 mM phosphate buffer, pH 7.4. […]
The effect of the dendritic scaffold on nitroxyl rate of reduction was investigated under pseudo-first-order conditions, using a 10-fold excess of sodium ascorbate per PROXYL unit in 100 mM PB pH 7.4 at 300 K. The reduction was monitored by EPR spectroscopy following the decrease of the area under the spectra as a function of time (Figure 4a). As reference, the rate of reduction of 3-carboxy-PROXYL was determined under identical conditions. […] Rate constants were determined by EPR spectroscopy following the decrease of the area under the spectra as a function of time.

[3] = r.t. 7T, reference value for the clinical Gd contrast agent; cited from earlier work

CC1(C)CC(C(=O)O)C(C)(C)N1[O] (stereo not shown) [3-carboxy PROXYL, 3-carboxy-PROXYL]
r1^7T ([1]; longitudinal relaxivity per unit of nitroxyl radical): 0.20 ± 0.014 mM⁻¹ s⁻¹
r2^7T ([1]; transverse relaxivity per unit of nitroxyl radical): 0.23 ± 0.06 mM⁻¹ s⁻¹
Initial stage k (M^-1s^-1) x 10^3 [2]: 11.2 M^-1s^-1 x 10^3

O=C([O-])CN(CCN(CC(=O)[O-])CC(=O)O)CCN(CC(=O)[O-])CC(=O)O.[Gd+3] [Gd-DTPA]
relaxivity [3]: 3.2 s⁻¹ mM⁻¹
